In ChEMBL document CHEMBL1140241, “Discovery of new diphenyloxazole derivatives containing a pyrrolidine ring: orally active prostacyclin mimetics. Part 2” (Bioorg Med Chem Lett, 2005):

Legend:
[1] = In vitro inhibition of ADP-induced platelet aggregation in human platelet rich plasma; type: functional, cell-free
Rattus norvegicus = species: Rattus norvegicus; assay: In vitro inhibition of ADP-induced platelet aggregation in rat platelet rich plasma; type: functional
Canis familiaris = species: Canis familiaris; assay: In vitro inhibition of ADP-induced platelet aggregation in dog platelet rich plasma; type: functional; settings: Canis lupus familiaris
[2] = Percent oral bioavailability of the drug after intravenous administration at 0.032 mg/kg in dog; type: ADME, organism-based, Canis lupus familiaris; settings: in vivo, read-out: Ba
[3] = Maximum (peak) plasma drug concentration after peroral administration at a dose of 0.032 mg/kg in dog; type: ADME, organism-based, Canis lupus familiaris; set-up: dose 0.032 mg/kg, route oral; settings: po
[4] = In vitro inhibition of ADP-induced platelet aggregation in monkey platelet rich plasma; type: functional; settings: Cercopithecidae
[5] = Elimination half-life after intravenous administration at a dose of 3.2 mg/kg in rat (n=3); type: ADME, organism-based; set-up: dose 3.2 mg/kg, route intravenous; settings: in vivo
[6] = Area Under Plasma concentration-time curve after peroral administration at a dose of 0.032 mg/kg in dog; type: ADME, organism-based, Canis lupus familiaris; set-up: dose 0.032 mg/kg, route oral; settings: po
[7] = Maximum (peak) plasma drug concentration after peroral administration at a dose of 3.2 mg/kg in rat (n=3); type: ADME, organism-based; set-up: dose 3.2 mg/kg, route oral; settings: po
[8] = Total body clearance of drug from the plasma after intravenous administration at 0.032 mg/kg in dog; type: ADME, organism-based, Canis lupus familiaris; set-up: dose 0.032 mg/kg, route intravenous; settings: read-out: CLtot
[9] = Area under plasma concentration-time curve after peroral administration at a dose of 3.2 mg/kg in rat (n=3); type: ADME, organism-based; set-up: dose 3.2 mg/kg, route oral; settings: po
[10] = Percent oral bioavailability after intravenous administration at 3.2 mg/kg in rat; type: ADME, organism-based; settings: in vivo, read-out: Ba
[11] = Elimination half-life after intravenous administration at a dose of 0.032 mg/kg in dog; type: ADME, organism-based, Canis lupus familiaris; set-up: dose 0.032 mg/kg, route intravenous; settings: in vivo
[12] = Total body clearance of drug from the plasma after intravenous administration at 3.2 mg/kg in rat; type: ADME, organism-based; set-up: dose 3.2 mg/kg, route intravenous; settings: read-out: CLtot

Row | SMILES | IC50 [1] | IC50 (Rattus norvegicus) | further results
1 | O=C(O)COc1cccc2c1CCCC2CCc1nc(-c2ccccc2)c(-c2ccccc2)o1 (configuration not stated) | 1000 nM | > 10000 nM | –
2 | O=C(O)COc1cccc2c1CCC[C@H]2NCc1nc(-c2ccccc2)c(-c2ccccc2)o1 | 190 nM | 5000 nM | –
3 | O=C(O)COc1cccc2c1CCC[C@@H]2N1CCC[C@@H]1c1nc(-c2ccccc2)c(-c2ccccc2)o1 | 870 nM | > 10000 nM | –
4 | O=C(O)COc1cccc2c1CCC[C@H]2N1CCC[C@H]1c1nc(-c2ccccc2)c(-c2ccccc2)o1 | 640 nM | > 10000 nM | –
5 | O=C(O)COc1cccc2c1CCC[C@@H]2NCc1nc(-c2ccccc2)c(-c2ccccc2)o1 | 1500 nM | – | –
6 | O=C(O)COc1cccc2c1CCC[C@H]2OCc1nc(-c2ccccc2)c(-c2ccccc2)o1 | 140 nM | – | –
7 | O=C(O)COc1cccc2c1CCC[C@@H]2OCc1nc(-c2ccccc2)c(-c2ccccc2)o1 | 1400 nM | – | –
8 | CCC/C(CC1CCc2c(cccc2OCC(=O)O)C1)=N\OC(c1ccccc1)c1ccccc1 (configuration not stated) [AP-227] | 150 nM | – | –

Now those with a lower IC50 [1], led by results:

Row | IC50 [1] | IC50 (Rattus norvegicus) | SMILES | further results
9 | 63 nM | 2200 nM | O=C(O)COc1cccc2c1CCC[C@@H]2N1CCC[C@H]1c1nc(-c2ccccc2)c(-c2ccccc2)o1 | –
10 | 60 nM | 1200 nM | O=C(O)COc1cccc(C[C@@H]2CCCC=C2c2nc(-c3ccccc3)c(-c3ccccc3)o2)c1 | IC50 (Canis familiaris): 1300 nM
11 | 19 nM | 630 nM | O=C([O-])COc1cccc2c1CCC[C@H]2N1CCC[C@@H]1c1nc(-c2ccccc2)c(-c2ccccc2)o1.[Na+] | bioavailability [2]: 66%; Cmax [3]: 61.2 ng/mL; IC50 [4]: 59 nM; half-life [5]: 0.21 h; AUC [6]: 327 ng·h/mL; Cmax [7]: 187 ng/mL; clearance [8]: 1 mL/min/kg; AUC [9]: 172 ng·h/mL; bioavailability [10]: 31%; IC50 (Canis familiaris): 780 nM; half-life [11]: 2.25 h; clearance [12]: 89.2 mL/min/kg
12 | 2.5 nM | – | CC#CCC(C)[C@H](O)/C=C/[C@@H]1[C@H]2C/C(=C/CCCC(=O)O)C[C@H]2C[C@H]1O (some centres not stated) [ILOPROST] | –
